The results in this text go back to patent US20140066620A1, “PYRIMIDINE SUBSTITUTED PURINE DERIVATIVES” (VERASTEM, INC., priority 2007, published 2014).

In test [1] the test system is DU145 cells. As to the kind of experiment: Cell-based proliferation assay, DU145. Conditions: Homo sapiens, DU-145, 96 h treatment, Celltiter96 Aqueous One Solution. How it is done: Human cancer cell lines PC3 and DU145 (human prostate cancer cell lines), were obtained from ATCC. They were cultured in the media according to the ATCC work instructions. PC3 and DU145 cells were seeded at 1,000 cells per well in 96-well plates, respectively. The plates were incubated at 37° C., 5% CO2, for 24 h. Cells were treated with compounds at various concentrations for 96 h. Cell proliferation was then quantified using Celltiter96 Aqueous One Solution Cell Proliferation Assay from Promega (Madison Wis.). Dose response curves were plotted to determine IC50 values for the compounds using XL-fit (ID Business Solution, Emeryville, Calif.).

The target of test [2] is T1, Recombinant PI3K p110α/p85 (Homo sapiens, UniProt P42336).
T1 construct: made in house
The test is described as follows: PI3K Assay (radiometric lipid kinase assay). Format: biochemical. Conditions: p110α/p85, 2 μM ATP, 1 hour at RT; read-out: IC50 (PI3Kα). The method, then: Recombinant PI3K p110α/p85 was prepared in-house. Phosphatidylinositol (PtdIns), phosphotidylserine (PtdSer) and all other unspecified chemicals were purchased from Sigma-Aldrich. [γ^33P]ATP and Optiphase scintillant were obtained from Perkin Elmer.
Assays were performed in a final assay volume of 25 μL in 384-well Maxisorp plates (Nunc). […] Maxisorp plates were coated with 20 μL/well of a 1:1 mixture of PtdIns and PtdSer [0.1 mg/mL each dissolved in chloroform:ethanol (3:7)] and left overnight in a fume hood at room temperature (RT) to dry.
The reaction was incubated for 1 hour at RT and terminated with 30 μL/well of 50 mM EDTA solution. The plate was then washed twice with TBS, dried, and added with 30 μL/well of scintillant before it was counted in a MicroBeta Trilux.

Test [3] deals with T2, Truncated mTOR kinase (Homo sapiens, UniProt P42345).
T2 construct: Truncated mTOR kinase and His-tagged 4eBP1 were produced in-house
As to the kind of experiment: mTOR Assay (radiometric phosphorylation of 4eBP1). To be noted: 4eBP1 substrate, 10 μM ATP, 1 hour at room temperature. The test is classed as biochemical. How it is done: Truncated mTOR kinase and His-tagged 4eBP1 were produced in-house. [γ^33P]-ATP was purchased from Amersham (GE Healthcare). All chemicals, unless otherwise stated, were from Sigma-Aldrich.
Phosphorylation assays were initially performed in a final volume of 20 μL in 384-well polypropylene plate (Greiner). […] The reaction was initiated by adding 10 μL/well of 20 μM ATP solution (final assay concentration 10 μM ATP and 0.4 μCi/well of [γhu 33P]-ATP). After 1 hour incubation at room temperature, the reaction was terminated with 40 μL/well of 20 mM EDTA/1 mM ATP solution.
50 μL/well of the stopped reaction mix was then transferred to 384-well MultiScreenHTS-PH filter plate (Millipore) pre-added with 50 μL/well of 1% phosphoric acid. The plate was washed 4 times with 120 μL/well of 0.5% phosphoric acid via vacuum filtration. Finally, 10 μL/well of Optiphase™ SuperMix liquid scintillation cocktail (Perkin Elmer) was added. After minimum 1 hour of incubation, counting was performed in a Wallac MicroBeta TriLux scintillation counter using coincidence counting mode with crosstalk correction.

T2 sequence (P42345 2156-2549 limits assumed): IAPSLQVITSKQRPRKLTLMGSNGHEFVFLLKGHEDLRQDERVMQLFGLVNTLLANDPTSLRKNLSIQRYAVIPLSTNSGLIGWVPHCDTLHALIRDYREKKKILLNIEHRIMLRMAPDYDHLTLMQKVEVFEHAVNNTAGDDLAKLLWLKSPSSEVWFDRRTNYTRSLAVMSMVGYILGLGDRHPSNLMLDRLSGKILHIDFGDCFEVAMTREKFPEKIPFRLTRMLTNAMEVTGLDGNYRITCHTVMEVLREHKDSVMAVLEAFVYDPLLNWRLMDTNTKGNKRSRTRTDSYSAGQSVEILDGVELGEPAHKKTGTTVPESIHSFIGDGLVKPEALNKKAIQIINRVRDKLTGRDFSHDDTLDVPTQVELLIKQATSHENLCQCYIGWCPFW
T1 sequence (P42336 whole entry): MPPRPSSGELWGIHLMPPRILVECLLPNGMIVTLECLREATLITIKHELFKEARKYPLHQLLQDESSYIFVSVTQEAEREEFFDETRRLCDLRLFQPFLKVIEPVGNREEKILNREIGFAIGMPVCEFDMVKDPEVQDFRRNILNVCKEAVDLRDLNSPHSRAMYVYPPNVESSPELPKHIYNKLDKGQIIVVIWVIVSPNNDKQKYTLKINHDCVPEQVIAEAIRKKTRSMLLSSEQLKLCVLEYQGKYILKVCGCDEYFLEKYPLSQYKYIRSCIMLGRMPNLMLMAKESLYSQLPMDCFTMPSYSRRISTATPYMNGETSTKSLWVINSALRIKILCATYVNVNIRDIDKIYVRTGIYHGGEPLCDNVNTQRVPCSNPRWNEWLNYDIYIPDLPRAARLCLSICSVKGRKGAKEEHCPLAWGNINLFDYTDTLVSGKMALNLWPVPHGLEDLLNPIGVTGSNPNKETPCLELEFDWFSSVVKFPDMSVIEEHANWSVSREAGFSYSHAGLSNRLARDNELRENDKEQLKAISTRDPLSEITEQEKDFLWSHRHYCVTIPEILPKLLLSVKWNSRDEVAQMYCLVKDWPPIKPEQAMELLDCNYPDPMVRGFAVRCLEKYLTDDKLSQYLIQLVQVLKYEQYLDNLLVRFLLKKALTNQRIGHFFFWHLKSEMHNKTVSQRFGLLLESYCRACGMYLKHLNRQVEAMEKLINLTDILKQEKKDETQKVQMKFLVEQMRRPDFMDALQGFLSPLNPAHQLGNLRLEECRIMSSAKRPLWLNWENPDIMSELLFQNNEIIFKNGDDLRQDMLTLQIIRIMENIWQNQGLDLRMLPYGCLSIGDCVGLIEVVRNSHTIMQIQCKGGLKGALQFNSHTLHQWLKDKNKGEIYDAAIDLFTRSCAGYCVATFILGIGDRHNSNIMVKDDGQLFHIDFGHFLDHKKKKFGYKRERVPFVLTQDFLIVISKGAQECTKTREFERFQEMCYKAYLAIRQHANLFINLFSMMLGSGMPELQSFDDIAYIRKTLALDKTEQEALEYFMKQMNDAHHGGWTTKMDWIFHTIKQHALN
T1 sequence (P27986 whole entry partner): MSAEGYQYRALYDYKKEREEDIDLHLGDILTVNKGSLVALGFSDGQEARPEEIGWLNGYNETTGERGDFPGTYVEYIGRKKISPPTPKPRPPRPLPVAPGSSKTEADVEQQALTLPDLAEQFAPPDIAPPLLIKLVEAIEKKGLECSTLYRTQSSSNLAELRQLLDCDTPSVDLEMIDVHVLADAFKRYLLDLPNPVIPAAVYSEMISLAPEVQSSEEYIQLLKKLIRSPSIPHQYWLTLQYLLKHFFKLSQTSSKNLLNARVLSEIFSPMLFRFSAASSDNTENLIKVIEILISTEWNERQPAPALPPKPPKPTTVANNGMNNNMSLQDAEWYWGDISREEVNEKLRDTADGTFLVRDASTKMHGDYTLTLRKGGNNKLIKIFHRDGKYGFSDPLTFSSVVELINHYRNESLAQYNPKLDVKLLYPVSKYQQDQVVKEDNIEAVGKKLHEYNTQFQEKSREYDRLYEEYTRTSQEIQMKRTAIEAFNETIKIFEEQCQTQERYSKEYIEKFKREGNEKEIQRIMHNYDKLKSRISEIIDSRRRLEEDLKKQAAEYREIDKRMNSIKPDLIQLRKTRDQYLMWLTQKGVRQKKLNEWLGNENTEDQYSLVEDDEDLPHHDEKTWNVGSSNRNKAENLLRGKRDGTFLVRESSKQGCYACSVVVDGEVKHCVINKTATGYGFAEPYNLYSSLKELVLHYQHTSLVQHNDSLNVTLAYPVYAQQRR

The term IC50 denotes the point on the concentration scale where inhibition reaches its midpoint. `Nc1ncc(-c2nc(N3CCOCC3)nc3c2ncn3CC2CC2)cn1` [Compound 3]: the values for the IC50 in test [1], in test [2] and in test [3] were 1 to 5 µM, less than 1 µM and less than 1 µM, respectively.
